Key:
[1] = tested on: HAP1 MTAP-intact cell line; experiment: SDMA in-cell western assay, HAP1 MTAP-intact; assay type: cell-based; conditions: Homo sapiens, HAP1, SDMA in-cell western, HAP1 MTAP-intact; read-out: MTAP HAP1 intact IC50
Summary of the method: (§1)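 MTAP-null vs endogenous-MTAP HAP1 isogenic cells; in-cell western SDMA readout; IC50 per line.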

[2] = tested on: HAP1 MTAP-deleted cell line; experiment: SDMA in-cell western assay, HAP1 MTAP-deleted; assay type: cell-based; conditions: for IC50: Homo sapiens, HAP1, SDMA in-cell western, HAP1 MTAP-deleted; for MTAP intact/deleted ratio: IC50 ratio HAP1 MTAP-intact / HAP1 MTAP-deleted, SDMA in-cell western
Summary of the method: as §1

PRMT5 [3] = target: T1, PRMT5 (Homo sapiens, UniProt O14744); experiment: PRMT5 biochemical IC50 assay with SAM as cofactor; conditions: PRMT5, SAM as cofactor; read-out: SAM IC50
T1 construct: purchased Viva (custom protein)
T1 sequence (O14744 whole entry): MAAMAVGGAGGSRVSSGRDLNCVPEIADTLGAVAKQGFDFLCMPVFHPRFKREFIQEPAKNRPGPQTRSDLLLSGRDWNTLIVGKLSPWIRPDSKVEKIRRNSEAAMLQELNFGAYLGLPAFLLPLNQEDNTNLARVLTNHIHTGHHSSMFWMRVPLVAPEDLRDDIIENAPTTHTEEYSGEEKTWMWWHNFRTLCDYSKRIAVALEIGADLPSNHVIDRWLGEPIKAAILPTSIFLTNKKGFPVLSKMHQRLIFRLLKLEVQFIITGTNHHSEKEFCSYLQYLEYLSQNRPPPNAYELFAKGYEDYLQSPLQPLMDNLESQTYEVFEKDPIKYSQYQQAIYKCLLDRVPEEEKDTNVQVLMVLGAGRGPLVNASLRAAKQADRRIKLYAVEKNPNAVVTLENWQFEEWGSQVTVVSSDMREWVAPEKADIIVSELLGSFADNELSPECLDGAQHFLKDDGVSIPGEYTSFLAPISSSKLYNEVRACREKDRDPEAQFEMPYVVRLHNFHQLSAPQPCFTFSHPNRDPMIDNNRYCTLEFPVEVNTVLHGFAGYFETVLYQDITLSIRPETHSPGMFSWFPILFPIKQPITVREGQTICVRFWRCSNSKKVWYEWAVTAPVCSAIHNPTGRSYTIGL
T1 sequence (Q9BQA1 whole entry partner): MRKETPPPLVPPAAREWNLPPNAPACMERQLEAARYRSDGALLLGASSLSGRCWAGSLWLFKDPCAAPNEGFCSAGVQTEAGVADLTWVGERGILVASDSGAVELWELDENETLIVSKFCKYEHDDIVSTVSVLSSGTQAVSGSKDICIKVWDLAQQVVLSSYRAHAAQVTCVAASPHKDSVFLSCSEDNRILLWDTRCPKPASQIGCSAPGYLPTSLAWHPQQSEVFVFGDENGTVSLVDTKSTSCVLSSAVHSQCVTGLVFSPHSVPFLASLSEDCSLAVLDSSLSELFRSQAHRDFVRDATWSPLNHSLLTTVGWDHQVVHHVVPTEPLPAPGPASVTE

PRMT5 [4] = target: T1, PRMT5; experiment: PRMT5 biochemical IC50 assay with MTA as cofactor; conditions: PRMT5, MTA as cofactor; read-out: MTA IC50
[5] = tested on: HAP1 MTAP-deleted cell line; experiment: Viability assay, MTAP-deleted cell line; assay type: cell-based; conditions: Homo sapiens, read-out: HAP1 MTAP deleted viability
Text: Table 1 additionally indicates IC50 values in a viability assay for the MTAP-deleted cell line (column 10), indicating the effect of treatment with compound on cell survival.

PRMT5 [6] = target: T1, PRMT5; experiment: PRMT5 biochemical IC50 assay with no cofactor; conditions: PRMT5, no cofactor
Text: Table 1 indicates IC50 values (μM) against PRMT5 for exemplary compounds in the presence of SAM as cofactor, with no cofactor, and with MTA as cofactor, respectively (columns 4-6). […] Ki values can be calculated from the IC50 values as described in the Examples section. As detailed in the Examples section, for the assay performed in the presence of SAM, IC50=Ki×1.5 (Ki=IC50/1.5).

[7] = read-out: HAP1 MTAP deleted IC50
[8] = HAP1, viability assay, MTAP-deleted cell line
[9] = read-out: HAP 1 MTAP deleted IC50
[10] = HAP1, viability, HAP1 MTAP-deleted cell line
[11] = read-out: No Cofactor/ rel IC50
[12] = HAP1, viability assay, HAP1 MTAP-deleted

| SMILES | IC50 [1] [nM] | IC50 [2, 7] [nM] | MTAP intact/deleted ratio [2] | IC50 (PRMT5 [3]) [nM] | IC50 (PRMT5 [4]) [nM] | IC50 [5, 8] [nM] | IC50 (PRMT5 [6]; read-out: No Cofactor/rel IC50) [nM] | IC50 [2, 9] [nM] | IC50 [5, 10] [nM] | IC50 (PRMT5 [6]; [11]) [nM] | IC50 [5, 12] [nM] |
| --- | --- | --- | --- | --- | --- | --- | --- | --- | --- | --- | --- |
| C[C@@H]1CC[C@@H](c2ccnc(C(F)(F)F)c2)N(C(=O)C(=O)Nc2cncc(C(N)=O)c2)C1 (racemic) [Compound 221, rac-5-{2-[(2R,5S)-5-Methyl-2-[2-(trifluoromethyl)pyridin-4-yl]piperidin-1-yl]-2-oxoacetamido}pyridine-3-carboxamide] | > 1000 | 100 to 1000 | A (an IC50 ratio greater than or equal to 10 fold) | 50 to 500 | 50 to 500 | > 10000 | 50 to 500 |  |  |  |  |
| Cc1cc(NC(=O)C(=O)N2C[C@@H](C)[C@@H](CC(C)C)C[C@@H]2c2ccc3scnc3c2)cnc1N (single isomer, unassigned) [Compound 1157] | > 1000 | > 1000 |  | > 500 | > 500 | > 10000 | > 500 |  |  |  |  |
| CCc1cc(NC(=O)C(=O)N2C[C@@H](C)CC[C@@H]2c2ccc3nn([C@@H]4CCCN(C)C4)cc3c2)cnc1N (single isomer, unassigned) [Compound 1270] | 100 to 1000 |  | A (an IC50 ratio greater than or equal to 10 fold) | 50 to 500 | < 50 |  |  | < 100 | < 1000 | 50 to 500 |  |
| Cc1cc(NC(=O)C(=O)N2C[C@@H](C)CC[C@@H]2c2cccc(C(F)(F)F)c2)cnc1N (single isomer, unassigned) [Compound 507] | > 1000 | > 1000 | C (an IC50 ratio of less than 3 fold) | > 500 | > 500 | > 10000 | > 500 |  |  |  |  |
| [2H]c1c([2H])c([C@@]2([2H])CC[C@H](C)CN2C(=O)C(=O)Nc2cncc(C(N)=O)c2)c([2H])c([2H])c1F (racemic) [Compound 1010, 5-(2-(2-(4-fluorophenyl-2,3,5,6-d4)-5-methylpiperidin-1-yl-2-d)-2-oxoacetamido)nicotinamide] | > 1000 |  | A (an IC50 ratio greater than or equal to 10 fold) | 50 to 500 | 50 to 500 | 1000 to 10000 | 50 to 500 | 100 to 1000 |  |  |  |
| CCOc1ncc(NC(=O)C(=O)N2C[C@H](C)CC[C@H]2c2ccccc2)cc1C(N)=O (single isomer, unassigned) [Compound 765] | > 1000 | > 1000 | C (an IC50 ratio of less than 3 fold) | > 500 | > 500 |  | > 500 |  |  |  | > 10000 |
| Cc1cc(NC(=O)C(=O)N2C[C@@H](C)CC[C@@H]2c2cc3[nH]ncc3s2)cnc1N (single isomer, unassigned) [Compound 824] | 100 to 1000 | < 100 | A (an IC50 ratio greater than or equal to 10 fold) | 50 to 500 | < 50 |  | < 50 |  |  |  | < 1000 |
| COc1ncc(NC(=O)C(=O)N2C[C@@H](C)CC[C@@H]2c2cnc3c(c2)CCC(=O)N3)cc1C(N)=O (racemic) [Compound 891, rac-2-Methoxy-5-[[2-[(2S,5R)-5-methyl-2-(7-oxo-6,8-dihydro-5H-1,8-naphthyridin-3-yl)-1-piperidyl]-2-oxo-acetyl]amino]pyridine-3-carboxamide] | > 1000 |  | A (an IC50 ratio greater than or equal to 10 fold) | 50 to 500 | 50 to 500 | > 10000 | 50 to 500 | 100 to 1000 |  |  |  |
| C[C@H]1CCC[C@@H](c2ccccc2)N1C(=O)C(=O)Nc1cncc(C(N)=O)c1 (single isomer, unassigned) [Compound 274] | > 1000 | 100 to 1000 | A (an IC50 ratio greater than or equal to 10 fold) | 50 to 500 | < 50 | 1000 to 10000 | 50 to 500 |  |  |  |  |
| C[C@H]1CC[C@H]2CCCC[C@H]2N1C(=O)C(=O)Nc1cncc(C(N)=O)c1 (single isomer, unassigned) [Compound 245] | > 1000 | 100 to 1000 | A (an IC50 ratio greater than or equal to 10 fold) | 50 to 500 | < 50 | 1000 to 10000 | 50 to 500 |  |  |  |  |
| Cc1cc(NC(=O)C(=O)N2C[C@H](C)CC[C@H]2c2cnc3c(c2)CCC(=O)N3)cnc1N (racemic) [Compound 923, rac-N-(6-Amino-5-methyl-3-pyridyl)-2-[(2S,5R)-5-methyl-2-(7-oxo-6,8-dihydro-5H-1,8-naphthyridin-3-yl)-1-piperidyl]-2-oxo-acetamide] | > 1000 |  | A (an IC50 ratio greater than or equal to 10 fold) | 50 to 500 | 50 to 500 | 1000 to 10000 | 50 to 500 | 100 to 1000 |  |  |  |
| C[C@@H]1CC[C@@H](c2ccc3c(c2)C(=O)NC3)N(C(=O)C(=O)Nc2cncc(C(N)=O)c2)C1 (single isomer, unassigned) [Compound 746] | > 1000 | 100 to 1000 | A (an IC50 ratio greater than or equal to 10 fold) | 50 to 500 | < 50 |  | < 50 |  |  |  | 1000 to 10000 |
| COc1ncc(NC(=O)C(=O)N2C[C@@H](C)CC[C@@H]2c2ccc3c(c2)OCCN3)cc1C(N)=O (racemic) [Compound 869, 5-[[2-[(2R,5S)-2-(3,4-dihydro-2H-1,4-benzoxazin-7-yl)-5-methyl-1-piperidyl]-2-oxo-acetyl]amino]-2-methoxy-pyridine-3-carboxamide] | > 1000 | < 100 | A (an IC50 ratio greater than or equal to 10 fold) | 50 to 500 | 50 to 500 |  | 50 to 500 |  |  |  | < 1000 |
| Cc1cc(NC(=O)C(=O)N2C[C@@H](C)CC[C@@H]2c2cc(F)c3[nH]ncc3c2)cnc1N (single isomer, unassigned) [Compound 1350] | 100 to 1000 |  | A (an IC50 ratio greater than or equal to 10 fold) | 50 to 500 | < 50 |  |  | < 100 | < 1000 | < 50 |  |
| NC(=O)c1cncc(NC(=O)C(=O)N2CCCCC2c2ccccc2)c1N (stereo not drawn) [Compound 119, 4-amino-5-[[2-oxo-2-(2-phenyl-1-piperidyl)acetyl]amino]pyridine-3-carboxamide] | > 1000 |  | A (an IC50 ratio greater than or equal to 10 fold) | 50 to 500 | 50 to 500 | > 10000 |  | 100 to 1000 |  | 50 to 500 |  |
| CCc1cc(NC(=O)C(=O)N2C[C@@H](C)CC[C@@H]2c2ccc3sc([C@@H](C)CN(C)C)nc3c2)cnc1N [Compound 1324, N-(6-amino-5-ethylpyridin-3-yl)-2-((2R,5S)-2-(2-(1-(dimethylamino)propan-2-yl)benzo[d]thiazol-5-yl)-5-methylpiperidin-1-yl)-2-oxoacetamide] | < 100 |  | A (an IC50 ratio greater than or equal to 10 fold) | < 50 | < 50 |  |  | < 100 | < 1000 | < 50 |  |

— patent US11999727B2 (Tango Therapeutics, Inc., priority 2020, dated 2024)
